In PMC8018653, “Gender-based differences in brain and plasma pharmacokinetics of letrozole in sprague-dawley rats: Application of physiologically-based pharmacokinetic modeling to gain quantitative insights” (PLoS ONE, 2021):
Values joined by “and” are separate entries in the source; they are usually repeats but may differ in a detail not shown here. Equal entries are not always repeated. “Also recorded” adds a separate entry of the source. Where two headings read alike, the source gives them in different places. Marks after values point to notes of the source that are not given here.

Experiments:
[1] = parameters: method as in PMID 17045772; conditions: rat liver microsomes; cited from earlier work
[2] = tested on: C6 orthotopic tumor; parameters: method as in PMID 25695958; conditions: C6 orthotopic glioma, rats, 4 mg/kg; cited from earlier work
[3] = parameters: method as in PMID 11501174; conditions: cited from earlier work; for CLpo: assuming 250 g average body weight
[4] = Whole body PBPK model with multi-compartment brain model (Simcyp Animal Simulator V17); parameters: species or system rat
From the text: Simcyp Animal Simulator V17 (Certara Inc.) was employed for developing a bottom-up whole body PBPK model incorporating the specified multi-compartment brain model. Based on its anatomy and physiology, the whole brain is described by three compartments, viz. brain blood, brain mass and cerebrospinal fluid (CSF) as illustrated in Fig 1 (Simcyp® Rat Simulator). For model development, the physiological/ system-specific parameters were inferred from the existing rodent species within the animal simulator while, the key drug- specific parameters used are summarized in Table 1. Briefly, all the physiochemical and binding to blood components (plasma proteins and erythrocytes) parameters of letrozole were derived from expansive literature review. The first-order rate of absorption (Ka) and bioavailability following oral administration and systemic clearance values in male and female rats were obtained from a previously reported pharmacokinetic study and the first-order absorption model best fit the letrozole data. Full-PBPK model was employed for drug distribution while the Rodgers and Rowland method or “Method 2”, as defined in Simcyp v17, predicted the volume of distribution (Vss). For the multi-compartment brain model, the passive permeability-surface area product on the BBB (PSB) was determined using the Crone- Renkin Equation [25, 26]: PSB=−Fpfln(1−Kin/Fpf) (3) where, Fpf is the cerebral blood or perfusion flow rate and Kin is the brain uptake clearance. We used 0.036 mL/sec/g as the Fpf for letrozole, based on a previous study that obtained an average cerebral perfusion flow rate value for lipophilic compounds [25]. […] The passive permeability-surface area product on the blood-cerebrospinal fluid barrier (BCSFB), PSC, was assumed as half of the PSB [19, 27] while the passive permeability-surface area product on the cerebrospinal fluid-brain barrier (CSFBB), PSE, was set at 80 mL/min, assuming a high permeability of this barrier. Brain ECF concentrations were predicted using the in vivo unbound fraction in the brain (fu, brain) for letrozole multiplied by the simulated total brain concentrations. The fu, brain for letrozole was experimentally determined in both healthy and tumor-bearing female Sprague-Dawley rats (N = 4/ group). Following single dose intraperitoneal administration of 4 mg/kg letrozole, both brain ECF (representative of unbound drug concentration in the brain) and whole brain tissue samples were collected at the same corresponding timepoint around the Tmax (~6 hrs) of letrozole in brain ECF and the fu, brain was calculated based on the ratio of observed brain ECF to the whole brain tissue homogenate concentrations of letrozole (0.58 ± 0.19; mean ± SD).
For evaluation of model predictions, the PBPK model developed was used to simulate extravascular administration of single/ multiple doses of letrozole (4 mg/kg) in rodents. To evaluate the predictive performance of the PBPK model, we compared the ratio of the predicted exposure change (Cmax and AUC ratios) against the observed data. A 1.25-fold under‐ or over‐prediction was considered good and within 1.5‐fold was deemed reasonable.

[5] = Single dose brain ECF pharmacokinetics by intracerebral microdialysis; format: in vivo, Sprague-Dawley rats; conditions: single dose 4 mg/kg i.p.; for Tmax / AUC(0-t) / Kp uu: Sprague-Dawley, rat, ip; for Tmax / AUC(0-t): brain ECF (striatal microdialysate); for AUC(0-t): read-out: AUC 0–12, brain ECF; for Cmax, brain ECF / Kp uu: 4 mg/kg; for Kp uu: brain ECF / unbound plasma
Protocol: Within 10 minutes of collection, plasma was separated by centrifugation of the blood samples at 4,000 rpm for 15 min. Microdialysis samples were collected simultaneously through the probes at the same time points from 0–12 hours.

[6] = Passive permeability-surface area products by Crone-Renkin equation
From the text: Simcyp Animal Simulator V17 (Certara Inc.) was employed for developing a bottom-up whole body PBPK model incorporating the specified multi-compartment brain model. Based on its anatomy and physiology, the whole brain is described by three compartments, viz. brain blood, brain mass and cerebrospinal fluid (CSF) as illustrated in Fig 1 (Simcyp® Rat Simulator). For model development, the physiological/ system-specific parameters were inferred from the existing rodent species within the animal simulator while, the key drug- specific parameters used are summarized in Table 1. Briefly, all the physiochemical and binding to blood components (plasma proteins and erythrocytes) parameters of letrozole were derived from expansive literature review. […] Full-PBPK model was employed for drug distribution while the Rodgers and Rowland method or “Method 2”, as defined in Simcyp v17, predicted the volume of distribution (Vss). For the multi-compartment brain model, the passive permeability-surface area product on the BBB (PSB) was determined using the Crone- Renkin Equation [25, 26]: PSB=−Fpfln(1−Kin/Fpf) (3) where, Fpf is the cerebral blood or perfusion flow rate and Kin is the brain uptake clearance. […] The passive permeability-surface area product on the blood-cerebrospinal fluid barrier (BCSFB), PSC, was assumed as half of the PSB [19, 27] while the passive permeability-surface area product on the cerebrospinal fluid-brain barrier (CSFBB), PSE, was set at 80 mL/min, assuming a high permeability of this barrier. Brain ECF concentrations were predicted using the in vivo unbound fraction in the brain (fu, brain) for letrozole multiplied by the simulated total brain concentrations. The fu, brain for letrozole was experimentally determined in both healthy and tumor-bearing female Sprague-Dawley rats (N = 4/ group).

[7] = parameters: method as in PMID 23748921; conditions: cited from earlier work
[8] = PBPK input; ref Chemicalize database; cited from earlier work
[9] = females, steady state, 4 mg/kg for 11 days
[10] = males, steady state, 4 mg/kg for 5 days

With `N#Cc1ccc(C(c2ccc(C#N)cc2)n2cncn2)cc1` [letrozole] as the molecule, how does the “overall intrinsic clearance and formation rate of the carbinol metabolite, male versus female rats” value [1] read?
Its value is “about 3.0 fold”.

What about the “in vivo efficacy (tumor mass / volume)” value [2] of the same molecule?
The value was “marked reduction in the tumor mass; also recorded: marked reduction in tumor volume”.

What about the Fa ([3]; PBPK input) of the same molecule?
Its Fa is 0.99.

What about the CLpo ([3]; females) of the same molecule?
Its CLpo is 0.21 mL/min.

What about the CL ([3]; females) of the same molecule?
The CL was 0.85 mL/min/kg.

And the “Ka (first-order rate of absorption)” value ([3]; females)?
Its value is 0.49 h⁻¹.

And the CLpo ([3]; males)?
Its CLpo is 0.77 mL/min.

And the CL ([3]; males)?
The CL was 3.08 mL/min/kg.

What about the “Ka (first-order rate of absorption)” value ([3]; males) of the same molecule?
The value was 0.29 h⁻¹.

What about the “AUC 0–12, brain ECF, predicted/observed ratio” value ([4]; females, single dose 4 mg/kg) of the same molecule?
The value was 0.81.

What about the “AUC 0–72, plasma, predicted/observed ratio” value ([4]; females, single dose 4 mg/kg) of the same molecule?
The value was 0.95.

What about the “Cmax, brain ECF, predicted/observed ratio” value ([4]; females, single dose 4 mg/kg) of the same molecule?
The value was 0.71.

And the “Cmax, plasma, predicted/observed ratio” value ([4]; females, single dose 4 mg/kg)?
Its value is 0.90.

And the “Half-life t1/2, plasma, predicted/observed ratio” value ([4]; females, single dose 4 mg/kg)?
Its value is 1.29.

What about the “AUC 0–12, brain ECF, predicted/observed ratio” value [4, 9] of the same molecule?
The value was 0.78.

What about the “AUC 0–24, plasma, predicted/observed ratio” value [4, 9] of the same molecule?
Its value is 0.77.

And the “Cmax, brain ECF, predicted/observed ratio” value [4, 9]?
Its value is 0.66.

And the “Cmax, plasma, predicted/observed ratio” value [4, 9]?
Its value is 0.76.

What about the “AUC 0–12, brain ECF, predicted/observed ratio” value ([4]; males, single dose 4 mg/kg) of the same molecule?
The value was 1.29.

What about the “AUC 0–72, plasma, predicted/observed ratio” value ([4]; males, single dose 4 mg/kg) of the same molecule?
Its value is 0.85.

And the “Cmax, brain ECF, predicted/observed ratio” value ([4]; males, single dose 4 mg/kg)?
Its value is 1.19.

What about the “Cmax, plasma, predicted/observed ratio” value ([4]; males, single dose 4 mg/kg) of the same molecule?
Its value is 0.75.

What about the “Half-life t1/2, plasma, predicted/observed ratio” value ([4]; males, single dose 4 mg/kg) of the same molecule?
Its value is 1.45.

What about the “AUC 0–12, brain ECF, predicted/observed ratio” value [4, 10] of the same molecule?
The value was 1.07.

And the “AUC 0–24, plasma, predicted/observed ratio” value [4, 10]?
The value was 0.87.

What about the “Cmax, brain ECF, predicted/observed ratio” value [4, 10] of the same molecule?
The value was 0.96.

And the “Cmax, plasma, predicted/observed ratio” value [4, 10]?
The value was 0.80.

And the Tmax ([5]; female rats)?
Its Tmax is 6.9 h.

What about the AUC(0-t) ([5]; female rats) of the same molecule?
Its AUC(0-t) is 5750 ng·h/mL.

What about the Tmax ([5]; male rats) of the same molecule?
The Tmax was 4.7 h.

What about the AUC(0-t) ([5]; male rats) of the same molecule?
Its AUC(0-t) is 2410 ng·h/mL.

What about the “Cmax, brain ECF” value ([5]; female rats) of the same molecule?
Its value is 660 ± 260 ng/ml and 660 (260)* ng/ml and 660 ng/ml.

What about the Kp uu ([5]; female, female rats, read-out: Kpuu (AUC0-12 brain ECF / plasma unbound)) of the same molecule?
The Kp uu was 1.3.

What about the Kp uu ([5]; female, female rats, read-out: Kpuu (Cmax brain ECF / plasma unbound)) of the same molecule?
Its Kp uu is 1.4.

What about the “Cmax, brain ECF” value ([5]; male rats) of the same molecule?
The value was 260 ± 80 ng/ml and 260 (80) ng/ml and 260 ng/ml.

And the Kp uu ([5]; male, male rats, read-out: Kpuu (AUC0-12 brain ECF / plasma unbound))?
Its Kp uu is 0.6.

What about the Kp uu ([5]; male, male rats, read-out: Kpuu (Cmax brain ECF / plasma unbound)) of the same molecule?
The Kp uu was 0.6.

And the “brain ECF AUC0-12, female versus male difference” value [5]?
The value was 2.4 fold.

What about the “brain ECF Cmax, female versus male difference” value [5] of the same molecule?
Its value is 2.5 fold.

And the “PSC (passive permeability-surface area product on the BCSFB)” value ([6]; Assumed to be half of PSB)?
Its value is 0.42 mL/min.

And the “PSB (passive permeability-surface area product on the BBB)” value ([6]; Determined using Eq (3), assuming 1800 mg brain weight)?
The value was 0.84^b mL/min.

And the PSB ([6]; Eq (3))?
The PSB was “bBased on PSB = 0.469 mL/min/g brain weight, assuming 1800 mg brain weight”.

What about the brain-to-plasma partition coefficients ([7]; brain and brain tumor tissue, female Sprague-Dawley rats) of the same molecule?
Its brain-to-plasma partition coefficients is 0.5–1.0.

And the “intra-tumoral levels relative to the contralateral tumor-free region” value [7]?
Its value is 1.5 to 2 fold.

And the Intrinsic solubility [8]?
Its Intrinsic solubility is 62 µg/mL.

What about the logP [8] of the same molecule?
Its logP is “≈ 2.5”.
